The results in this text go back to patent USRE37781E1, “Substituted cyclic carbonyls and derivatives thereof useful as retroviral protease inhibitors” (DuPont Pharmaceuticals Company, priority 1991, dated 2002).

Converted amounts (≈) assume the structure as drawn. Where two headings read alike, the source gives them in different places. A value given as a limit tells only on which side of the number the result lay.

The target of experiment [1] is single-chain tethered dimer of HIV protease (Human immunodeficiency virus 1, UniProt P04585). Kind of experiment: biochemical. Type of experiment: biochemical. Details: fused on or other part: A second copy of the same protease unit is joined to the first by a short peptide tether, giving one polypeptide.
The next experiment has as its system HIV-1 (RF) in MT-2 cells. Kind of experiment: microbe, parasite or virus in culture. Type of experiment: cell-based. Put shortly: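 HIV-1 laboratory strains (RF, MN, IIIB) grown in H9 cells in RPMI 1640 with 5% FCS; infections in MT-2 cells. Viral RNA quantified by hybridization with biotinylated gag/pol capture probes on streptavidin plates and alkaline phosphatase-conjugated reporter probes; BH10 gag-pol in vitro transcripts serve as RNA standards.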

[2] abbreviates: Table 2d, HIV protease inhibition, HPLC method, read-out: HPLC K1.
Where [3] appears, read: read-out: HPLC K1, Table 2d, class symbols.
Setting [4] is: Human immunodeficiency virus 1, MT2, 48 h, Table 2d, class symbols, read-out: IC90.
The mark [5] stands for this setting: read-out: HPLC K1, Table 2d, HIV protease inhibition, HPLC method.
Where [6] appears, read: Human immunodeficiency virus 1, MT2, 48 h, Table 2d, HIV RNA assay, read-out: IC90.

In the case of `CN1C(Cc2ccccc2)C(O)C(O)C(Cc2ccccc2)N(C)S1(=O)=O` (stereo not drawn) [23V], the Ki in experiment [1] (Table 2m, read-out: HPLC Ki) was more than 1000 nM. Also, the IC90 entry with HIV-1 (RF) in MT-2 cells (Table 2m) is given as “++/+ (The ++/+ is used in the cases where an IC90 was determined to be >50 μg/mL)”.
Regarding `O=C1N(Cc2ccc3[nH]cnc3c2)C(Cc2ccccc2)C(O)C(O)C(Cc2ccccc2)N1Cc1ccc2[nH]cnc2c1` (stereo not drawn) [15CS], the Ki in experiment [1] (setting [2]) was 10 to 1000 nM. In the experiment with HIV-1 (RF) in MT-2 cells (Table 2d, HIV RNA assay), the IC90 result is given as “++ (++=10 to 100 μg/mL)”.
As to `COCc1cccc(CN2C(Cc3ccccc3)C(O)C(O)C(Cc3ccccc3)N(Cc3cccc(COC)c3)S2(=O)=O)c1` (stereo not drawn) [23P], the Ki in experiment [1] (Table 2m, read-out: HPLC Ki) was 10 to 1000 nM. Moreover, in the experiment with HIV-1 (RF) in MT-2 cells (Table 2m), the 90% effect concentration (IC90) result is recorded as “++ (++=10 to 100 μg/mL)”.
`NCCCCCCN1C(=O)N(Cc2ccc(CO)cc2)C(Cc2ccccc2)C(O)C(O)C1Cc1ccccc1` (stereo not drawn) [Example 15WD]: the Ki in experiment [1] (setting [3]) was 10 to 1000 nM. For the same molecule, the concentration for an effect of 90% (IC90) in the experiment with HIV-1 (RF) in MT-2 cells (setting [4]) is less than 10 µg/mL.
As for `O=C1N(Cc2cccc(CO)c2)C(Cc2ccccc2)C(O)C(O)C(Cc2ccccc2)N1Cc1ccccc1O` (stereo not drawn) [15EB], the Ki in experiment [1] (setting [2]) fell in the range of 10 to 1000 nM. In addition, the IC90 result in the experiment with HIV-1 (RF) in MT-2 cells (Table 2d, HIV RNA assay) was “+++ (+++=<10 μg/mL)”.
Consider `COc1cccc(CC2C(O)C(O)C(Cc3cccc(OC)c3)N(CC3CC3)C(=O)N2CC2CC2)c1` (stereo not drawn) [20AS], for which, in experiment [1] (Table 2i, read-out: HPLC Ki), the Ki is less than 10 nM. Besides, the IC90 entry in the experiment on HIV-1 (RF) in MT-2 cells (Table 2i) is “+++ (+++=<10 μg/mL)”.
Consider `C=CCN1C(=O)N(CC=C)[C@H](Cc2ccccc2)[C@@H](O)[C@H](O)[C@H]1Cc1ccccc1` [Example 13N], for which the Ki in experiment [1] (setting [3]) is more than 1000 nM. In addition, the IC90 in the experiment with HIV-1 (RF) in MT-2 cells (Human immunodeficiency virus 1, MT2, 48 h) lay within 10 to 100 µg/mL (≈ 24.6 to 246 µM).
Consider `O=C1N(Cc2cccc(C#CCO)c2)C(Cc2ccccc2)C(O)C(O)C(Cc2ccccc2)N1Cc1cccc(C#CCO)c1` (stereo not drawn) [Example 15XL], for which the Ki in experiment [1] (setting [5]) is less than 10 nM. The IC90 in the experiment on HIV-1 (RF) in MT-2 cells (setting [6]) was less than 10 µg/mL.
Consider `O=S1(=O)N(Cc2ccc(CO)cc2)C(Cc2ccc(F)cc2)C(O)C(O)C(Cc2ccc(F)cc2)N1Cc1ccc(CO)cc1` (stereo not drawn) [31D], for which the Ki in experiment [1] (Table 2u (second printing), HPLC method, read-out: K1 (HPLC)) is less than 10 nM; in experiment [1] (Table 2u, HPLC method, read-out: K1 (HPLC)), less than 10 nM. Moreover, the 90% effect concentration (IC90) result in the experiment with HIV-1 (RF) in MT-2 cells (Table 2u) and in the experiment with HIV-1 (RF) in MT-2 cells (Table 2u (second printing)) was “+++ (+++=<10 μg/mL)” throughout.
For the molecule `NC(=NO)c1cccc(CN2C(=O)N(Cc3cccc(C(N)=NO)c3)C(Cc3ccc(F)cc3)C(O)C(O)C2Cc2ccc(F)cc2)c1` (stereo not drawn) [20X], the Ki in experiment [1] (read-out: HPLC Ki, Table 2i) is less than 10 nM. Besides, the IC90 in the experiment on HIV-1 (RF) in MT-2 cells (Human immunodeficiency virus 1, MT2, Table 2i, read-out: IC90) is less than 10 µg/mL.
For `O=P1(Oc2ccccc2)N(Cc2cccc(CO)c2)[C@H](Cc2ccccc2)[C@H](O)[C@@H](O)[C@@H](Cc2ccccc2)N1Cc1cccc(CO)c1` (stereo partly drawn) [28J], the Ki in experiment [1] (Table 2r, read-out: Ki HPLC) is 10 to 1000 nM. For the same molecule, the IC90 result in the experiment with HIV-1 (RF) in MT-2 cells (Table 2r) is reported as “++ (++=10 to 100 μg/mL)”.
In the case of `COCCCCCN1C(=O)N(CCCCCOC)C(Cc2ccccc2)C(O)C(O)C1Cc1ccccc1` (stereo not drawn) [Example 15VV], the Ki in experiment [1] (setting [3]) fell in the range of 10 to 1000 nM. In the experiment with HIV-1 (RF) in MT-2 cells (setting [4]), the IC90 lay in the range of 10 to 100 µg/mL (≈ 19 to 190 µM).
On to `O=S1(=O)NC(Cc2ccccc2)C(O)C(O)C(Cc2ccccc2)N1` (stereo not drawn) [23A], for which the Ki in experiment [1] (Table 2m, read-out: HPLC Ki) is more than 1000 nM. For the same molecule, the IC90 entry with HIV-1 (RF) in MT-2 cells (Table 2m) is “++ (++=10 to 100 μg/mL)”.
Consider `O=C1N(Cc2cccc(OCC(O)CO)c2)C(Cc2ccccc2)C(O)C(O)C(Cc2ccccc2)N1Cc1cccc(OCC(O)CO)c1` (stereo not drawn) [10T], for which, in experiment [1] (Table 2d, class symbols, read-out: HPLC K1), the Ki was less than 10 nM. Besides, the IC90 entry in the experiment with HIV-1 (RF) in MT-2 cells (Table 2d, class symbols) is given as “+++ (+++=<10 μg/mL)”.
In the case of `O=S1(=O)N(CCCCCO)C(Cc2ccccc2)C(O)C(O)C(Cc2ccccc2)N1Cc1ccc(CO)cc1` (stereo not drawn) [23AG], in experiment [1] (Table 2m, read-out: HPLC Ki), the Ki is less than 10 nM. In addition, the concentration for an effect of 90% (IC90) entry in the experiment on HIV-1 (RF) in MT-2 cells (Table 2m) is “+++ (+++=<10 μg/mL)”.
Regarding `O=C1N(CCCCC(O)CBr)C(Cc2ccccc2)C(O)C(O)C(Cc2ccccc2)N1CCCCC(O)CBr` (stereo not drawn) [Example 13G], the Ki in experiment [1] (setting [3]) was less than 10 nM. The 90% effect concentration (IC90) in the experiment with HIV-1 (RF) in MT-2 cells (setting [4]) was less than 10 µg/mL.
For the molecule `O=C(CCl)Nc1cccc(CN2C(=O)N(Cc3cccc(NC(=O)CCl)c3)C(Cc3ccccc3)C(O)C(O)C2Cc2ccccc2)c1` (stereo not drawn) [Example 15AA], the Ki in experiment [1] (setting [5]) was less than 10 nM. Further, in the experiment with HIV-1 (RF) in MT-2 cells (setting [6]), the IC90 was less than 10 µg/mL.
For `O=C1Nc2ccc(CN3C(=O)N(Cc4ccc5c(c4)C(=NO)C(=O)N5)C(Cc4ccccc4)C(O)C(O)C3Cc3ccccc3)cc2C1=NO` (stereo not drawn) [15DB], the Ki in experiment [1] (setting [2]) is less than 10 nM. Moreover, the IC90 result with HIV-1 (RF) in MT-2 cells (Table 2d, HIV RNA assay) is on record as “+++ (+++=<10 μg/mL)”.
For `CNc1n[nH]c2ccc(CN3C(=O)N(Cc4ccc5[nH]nc(NC)c5c4)C(Cc4ccccc4)C(O)C(O)C3Cc3ccccc3)cc12` (stereo not drawn) [15DH] the same measures were less than 10 nM and “+++ (+++=<10 μg/mL)”.
As to `CC(O)c1ccc(CN2C(=O)N(Cc3ccc(C(C)O)cc3)C(Cc3ccccc3)C(O)C(O)C2Cc2ccccc2)cc1` (stereo not drawn) [20M], in experiment [1] (Table 2i, read-out: HPLC Ki), the Ki is less than 10 nM. Also, the concentration for an effect of 90% (IC90) result with HIV-1 (RF) in MT-2 cells (Table 2i) is “+++ (+++=<10 μg/mL)”.
